Usually half-life stands for the time needed for the level to fall by half in the phase considered. As usually defined, the Cmax is the highest concentration seen after dosing. One may read the Tmax as the time at which the peak concentration occurs. As usually defined, the IC50 is the concentration at which inhibition is half-maximal.

SMILES strings stand for the structures. Counter-ions that a name gives are not always drawn. Like-named read-outs stand apart in the source and are kept apart here. Where only a bound is given, the exact number is not on record here.

One data set has as its system Ba/F3-JAK2V617F tumor. Description: Efficacy in mouse subcutaneous xenograft tumor model. It counts as in vivo, Balb/c nude mice. As to conditions: for TGI (%) 3 d: day 3; for TGI (%) 7 d: day 7; for TGI (%) 10 d: day 10; for TGI (%) 14 d: day 14. The procedure:
3. Assay for Efficacy in Mouse Subcutaneous Xenograft Tumor Model SPF grade Balb/c nude mice are female and 5-6 weeks old. 0.1 mL of the suspension of Ba/F3-JAK2V617F cells in serum-free culture medium (containing 1×10^7 cells, 50% MatriGel) was subcutaneously injected into right flank of each mouse. When the average tumor volume reached about 500 mm^3, the tumor-bearing mice were sacrificed. The tumor tissues were aseptically picked up, and cut into small pieces, which were subcutaneously implanted into both flanks of Balb/c nude mice. When the average tumor volume reached about 100 mm^3, each mouse was marked according to serial numbers, and their tumor sizes and body weights were measured, respectively. These mice were randomly allocated from small to large in terms of tumor volume, and each group of animals was appropriately adjusted to make the average body weights of the groups in a same level. […] The administration was started on the day of allocation, twice per day for 14 days. During the administration, the tumor volumes and body weights were measured twice per week. The mice were sacrificed at the end of the experiment, and the spleen was isolated and weighted. During the experiment, the maximum long diameter (L) and the maximum transverse diameter in the vertical direction (W) of the tumor were measured to calculate the tumor volume (V) according to V (mm^3)=L×W^2/2. […] T0 represents the average tumor volume of the treatment group when being allocated; Vt represents the average tumor volume measured every time in the control group; V0 represents the average tumor volume of the control group when being allocated.

A short description of data set [1]: Pharmacokinetic assay in adult female SD rats (30 mg/kg oral). It counts as in vivo. As to conditions: female, Sprague-Dawley, rat, plasma, po, 30 mg/kg.
In data set [2] the target is JAK2 kinase (V617F mutant type, JAK2^V617F) (Homo sapiens (Human), UniProt O60674, V617F). Description: HTRF assay for enzymatic activity (IC50), JAK2 V617F mutant type. It counts as biochemical. As to conditions: ATP at Km, 120 min, 23 °C. Here is the method:
(§1) 1. Assay for Enzymatic Activity (IC50) of Compounds
(§2) A testing platform for kinase activity of JAK2 (wild type and V617F mutant type) was established based on Homogeneous Time-Resolved Fluorescence (HTRF) assay, and the activities of the compounds were tested using the platform. The compounds were subjected to three-fold gradient dilutions with 100% DMSO with a starting concentration of 1 mM (11 dilutions in total). 4 μL of each dilution was added to 96 μL of reaction buffer (50 mM HEPES, pH 7.4, 10 mM MgCl2, 1 mM EGTA, 0.01% Tween-20, 0.005% BAS, 2 mM DTT) and mixed homogeneously. […] The mixture was mixed homogeneously by centrifugation. […] The plate was incubated in the incubator for 1 hr, and then the fluorescence values were read on Envision (available from PerkinElmer). […] The enzymatic activity was representd by a ratio of the two readout at the two emission wavelengths. The enzymatic activity for each compound was tested at 11 concentrations, and IC50 values of the compounds were obtained by calculating the data using GraFit6.0 software (Erithacus Software). 2. Assay for cell proliferation activity (IC50) of compounds
On the technique in general: In TR-FRET formats the signal depends on donor and acceptor labels being close together.

Data set [3] deals with JAK2 kinase (wild type, JAK2^WT) (Homo sapiens (Human), UniProt O60674). The experiment in a line: HTRF assay for enzymatic activity (IC50), JAK2 wild type. It counts as biochemical. The note with it: ATP at Km, 120 min, 23 °C. Here is the method:
as §1, §2

The subject of a further data set is HEL (JAK2^V617F) cells. The experiment in a line: Cell proliferation assay (CellTiter-Blue, 72 hrs). As to conditions: Homo sapiens; 72 hrs of treatment. The class given is cell-based.
A short description of the next data set: in vivo. As to conditions: male, Sprague-Dawley, rat, plasma, po, 5 mg/kg.
The conditions of data set [4]: 0.5% MC, FDA pharmacology review, cited from earlier work.
The conditions of data set [5]: rats, 30 mg/kg PO; FDA pharmacology review; cited from earlier work.
The conditions of data set [6]: dogs, male, FDA pharmacology review, cited from earlier work.

Chain of JAK2 kinase (V617F mutant type, JAK2^V617F) (O60674 whole entry V617F): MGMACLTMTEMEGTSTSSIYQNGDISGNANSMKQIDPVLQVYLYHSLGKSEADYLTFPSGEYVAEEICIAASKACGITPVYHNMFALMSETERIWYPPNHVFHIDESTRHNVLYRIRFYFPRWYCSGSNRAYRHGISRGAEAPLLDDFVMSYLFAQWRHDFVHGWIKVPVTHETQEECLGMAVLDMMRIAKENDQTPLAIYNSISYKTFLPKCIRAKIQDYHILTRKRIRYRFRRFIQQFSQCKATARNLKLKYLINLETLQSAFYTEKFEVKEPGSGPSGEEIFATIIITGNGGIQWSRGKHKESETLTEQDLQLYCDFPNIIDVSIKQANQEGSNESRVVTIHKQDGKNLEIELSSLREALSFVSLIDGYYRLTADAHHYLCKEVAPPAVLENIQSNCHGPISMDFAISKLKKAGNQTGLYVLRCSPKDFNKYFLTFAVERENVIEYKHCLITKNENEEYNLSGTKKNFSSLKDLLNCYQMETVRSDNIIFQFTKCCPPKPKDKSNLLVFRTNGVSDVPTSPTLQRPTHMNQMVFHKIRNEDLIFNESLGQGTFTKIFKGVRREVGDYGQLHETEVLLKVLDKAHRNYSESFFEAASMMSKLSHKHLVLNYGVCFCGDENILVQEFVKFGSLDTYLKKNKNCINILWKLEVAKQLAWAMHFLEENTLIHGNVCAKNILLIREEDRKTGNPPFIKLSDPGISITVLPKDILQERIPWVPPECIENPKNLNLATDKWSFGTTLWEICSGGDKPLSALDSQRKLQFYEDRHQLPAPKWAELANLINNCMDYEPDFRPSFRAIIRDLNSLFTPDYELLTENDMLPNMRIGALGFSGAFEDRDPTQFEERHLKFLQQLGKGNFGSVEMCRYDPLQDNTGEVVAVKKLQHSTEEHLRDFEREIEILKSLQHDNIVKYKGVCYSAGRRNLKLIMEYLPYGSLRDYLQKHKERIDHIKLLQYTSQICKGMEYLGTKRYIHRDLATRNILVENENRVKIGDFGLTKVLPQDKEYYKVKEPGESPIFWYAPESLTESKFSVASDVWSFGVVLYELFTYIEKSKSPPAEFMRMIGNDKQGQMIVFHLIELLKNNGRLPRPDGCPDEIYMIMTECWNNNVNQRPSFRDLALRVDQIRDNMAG
Chain of JAK2 kinase (wild type, JAK2^WT) (O60674 whole entry): as the sequence (O60674 whole entry V617F) above, with F617V counted along it
Protocol for HEL (JAK2^V617F) cells: In the tests of compounds, HEL cells were plated in a 96-well plate (Corning) at a density of 3000 cells/195 μL per well. The compounds were subjected to three-fold gradient dilutions with a starting concentration of 10 mM (11 dilutions in total). […] 5 μL of the resulting liquid was then added to 195 μL of the cell culture medium (the final concentration in DMSO is 0.1%, v/v). After 72 hrs of treatment, 35 μL of CellTiter-Blue® (available from Promega) was added. The fluorescent signals were detected on Flex Station3 (Molecular Devices) in accordance with the protocols described in the instructions. The IC50 values of the compounds in inhibiting cell proliferation were calculated using GraphPad Prism 5.0.
Protocol for in vivo: The rats were allocated with three rats per group, and separately orally administered the suspension of a sample to be tested (5 mg/kg or 15 mg/kg) by single intragastric administration. […] After the animals were narcotized with isoflurane using an anaesthesia machine for small animals, 0.3 mL of whole blood was drawn from fundus venous plexus, and placed in a heparin anticoagulant tube. At 4° C., the sample was centrifuged at 4000 rpm for 5 min, and plasma was transferred to a centrifuge tube and preserved at −80° C. until the analysis was started. The sample in plasma was extracted by the protein precipitation method, and the extract liquid was analyzed by LC/MS/MS.

For the compound `N#CC[C@H](C1CCCC1)n1cc(-c2ncnc3[nH]ccc23)c(N)n1` [(3R)-3-[3-amino-4-(7H-pyrrolo[2,3-d]pyrimidin-4-yl)-1H-pyrazol-1-yl]-3-cyclopentylpropanenitrile hydrochloride], the “TGI (%) 3 d” value in the data set with Ba/F3-JAK2V617F tumor (25 mg/kg PO BID) is 45.45%; in the data set with Ba/F3-JAK2V617F tumor (50 mg/kg PO BID) it was 41.77%; in the data set on Ba/F3-JAK2V617F tumor (100 mg/kg PO BID), 91.62%. Further, the “TGI (%) 7 d” value in the data set on Ba/F3-JAK2V617F tumor (25 mg/kg PO BID) is on record as 16.85%; with Ba/F3-JAK2V617F tumor (50 mg/kg PO BID) it was 43.60%; with Ba/F3-JAK2V617F tumor (100 mg/kg PO BID), 79.76%. Further, the “TGI (%) 10 d” value stood at 54.49% in the data set with Ba/F3-JAK2V617F tumor (25 mg/kg PO BID), 65.19% in the data set on Ba/F3-JAK2V617F tumor (50 mg/kg PO BID) and 89.37% with Ba/F3-JAK2V617F tumor (100 mg/kg PO BID). Moreover, the “TGI (%) 14 d” value was 40.74% with Ba/F3-JAK2V617F tumor (25 mg/kg PO BID); 68.40% in the data set with Ba/F3-JAK2V617F tumor (50 mg/kg PO BID, hydrochloride); 68.4% in the data set on Ba/F3-JAK2V617F tumor (50 mg/kg PO BID, listed as hydrochloride of the compound of Example 5, hydrochloride); 85.76% with Ba/F3-JAK2V617F tumor (100 mg/kg PO BID, hydrochloride); 85.8% with Ba/F3-JAK2V617F tumor (100 mg/kg PO BID, listed as hydrochloride of the compound of Example 5, hydrochloride). Moreover, the “inhibitory effect on Ba/F3-JAK2V617F tumor growth” value in the data set with Ba/F3-JAK2V617F tumor (25, 50, 100 mg/kg PO BID for 14 days) was “dose-dependent inhibitory effect”. For the same compound, the half-life in data set [1] is 117 min. For the same compound, the AUC(0-inf) in [1] (read-out: AUCINFobs) came out at 5760 ng·h/mL. Moreover, the Cmax in [1] (read-out: Cmax) turned out to be 2350 ng/mL. Moreover, the time to peak (Tmax) in data set [1] (read-out: Tmax) was determined as 19.8 min.

As to `N#CCC(C1CCCC1)n1cc(-c2ncnc3[nH]ccc23)c(N)n1` (stereo not drawn) [Example 1, 3-[3-amino-4-(7H-pyrrolo[2,3-d]pyrimidin-4-yl)-1H-pyrazol-1-yl]-3-cyclopentylpropanenitrile], the IC50 in data set [2] and in data set [3] was under 20 nM each time.

In turn, `CCNc1nn(C(CC#N)C2CCCC2)cc1-c1ncnc2[nH]ccc12` (stereo not drawn) [Example 7, 3-[3-ethylamino-4-(7H-pyrrolo[2,3-d]pyrimidin-4-yl)-1H-pyrazol-1-yl]-3-cyclopentylpropanenitrile] came in with an IC50 in [2] of under 20 nM. In the data set with HEL (JAK2^V617F) cells, this compound had an IC50 of under 200 nM. Further, in “in vivo”, the AUC(0-inf) came to 20 ng·h/mL, the Cmax was 13.5 ng/mL, the Tmax came to 19.8 min and the half-life was 30 min. Further, the IC50 in data set [3] was under 20 nM.

Take `N#CC[C@H](C1CCCC1)n1cc(-c2ncnc3[nH]ccc23)cn1` [Ruxolitinib Phosphate]: in data set [4] (female rats, oral 15 mg/kg), the “AUCINF—obs” value was 336 ng·h/mL, the “Cmax” value is 267 ng/mL, the “T1/2” value is 1.98 h and the “Tmax” value is 30 min. Besides, in data set [4] (male rats, oral 5 mg/kg), the “AUCINF—obs” value is 3.33 ng·h/mL, the “Cmax” value is on record as 4.69 ng/mL and the “Tmax” value is 30 min.

In the case of `N#CC[C@H](C1CCCC1)n1cc(-c2ncnc3[nH]ccc23)cn1` [Ruxolitinib], in [5], the AUCINFobs is 1345 ng·h/mL, the Cmax is on record as 1143 ng/mL, the Tmax is 30 min and the t1/2 was 1.22 h. Besides, in [6] (IV 5 mg/kg), the “AUCINF—obs” value is 13776 ng·h/mL, the Cl_obs is 480 mL/h/kg, the Vss_obs is on record as 1100 mL/kg and the t1/2 was 2.5 h. Moreover, in [6] (PO 10 mg/kg), the “AUCINF—obs” value is 15716 ng·h/mL, the Cmax is 3519 ng/mL, the F is 57% and the Tmax is 2.0 h. In addition, in data set [6] (PO 10 mg/kg), the t1/2 was 2.2 h.

Values taken from patent publication US10561657B2, “Pyrrolopyrimidine compound” (CENTAURUS BIOPHARMA CO., LTD., priority 2014, dated 2020).
